System: SU-DHL-1 lymphoma cells
Conditions: mouse, in vivo

With O=P1(N(CCCl)CCCl)NCCCO1 (stereo not drawn) [cyclophosphamide] the “animal weight relative to the average weight on day 0” value was 104.7%±1.6%, the mean tumor volume was 367±79 mm^3 and the “tumor volume inhibition rate TGITV” value was −93%.

Reference: patent US20240050395A1 (priority 2020, published 2024)
